This note sets out measurements from patent US20230271993A1, “3-DEOXY-2-KETOALDONIC ACID NITROGEN-CONTAINING DERIVATIVE, PREPARATION METHOD THEREOF, AND USE THEREOF” (SICHUAN UNIVERSITY, priority 2020, published 2023).

For experiment [1], the system named is Zika virus-infected BHK cells. As to the kind of experiment: Anti-Zika (ZIKV) virus activity test, CellTiter-Glo cell viability. As to conditions: 100 TCID50 virus per well, 9 days at 37° C. In kind it is cell-based, Zika virus SZ-SMGC-01 strain. The protocol:
(1) Anti-Zika (ZIKV) Virus Activity Test
Test object: Zika virus-infected BHK cells
Testing Method: • (1) BBHK cells (preserved by the Academy of Military Medical Sciences) were inoculated into a 96-well plate at a concentration of 5×10^3 cells/well, and the cell culture medium was DMEM medium (purchased from Gibco Company, Cat. No. 11995065) containing 10% FBS (purchased from Gibco, Cat. No. 16000044), the plate was placed in a CO2 incubator, and incubated at 37° C. for 24 hours. • (2) The original medium in the 96-well plate was discarded, 100 μL of DMEM medium (purchased from Gibco, Cat. No. 11995065) containing 2% FBS (purchased from Gibco, Cat. No. 16000044) was taken and added into the cells. Then, the stock solution of the compound to be tested was serially diluted with the above-mentioned DMEM medium to 800 μM, 266.67 μM, 88.89 μM, 29.63 μM, 9.88 μM, 3.29 μM, 1.10 μM, 0.37 μM, and 50 μL was added to the cell culture plate. The stock solution of positive compound NITD008 (purchased from MCE Company, Cat. No. HY-12957) was serially diluted with the above DMEM medium to 80 μM, 26.67 μM, 8.89 μM, 2.96 μM, 0.99 μM, 0.33 μM, 0.11 μM, 0.04 μM, and 50 μL was added to the cell culture plate. Finally, 50 μL of Zika virus SZ-SMGC-01 strain (preserved by the Academy of Military Medical Sciences) diluted in DMEM medium containing 2% FBS was added to the cells, each well contained 100 TCID50 of the virus. The final concentration of the compound to be tested was 0.25 times the pretreatment concentration, that was, the initial concentration was 200 μM, and dilution was carried out by 3-fold series, so that the final concentrations of the compound to be tested were: 200 μM, 66.67 μM, 22.22 μM, 7.41 μM, 2.47 μM, 0.82 μM, 0.27 μM, 0.09 μM. The final concentrations of the positive compound were: 20 μM, 6.67 μM, 2.22 μM, 0.74 μM, 0.25 μM, 0.082 μM, 0.027 μM, 0.009 μM. Negative control (to the cell well, DMSO and culture medium were added, without drug) and positive control (to the cell well, DMSO, culture medium and virus were added, without drug) were set. The cell culture plates were incubated at 37° C. for 9 days. • (3) The Buffer and the substrate of CellTiter-Glo® Chemiluminescent Cell Viability Assay (purchased from Promega, Cat. No. G7573) were mixed in the dark to prepare a working solution. The working solution was mixed with PBS (purchased from Gibco, Cat. No. 10010049) at a ratio of 4:6. After the medium in the cell culture plate was discarded, 100 μl of detection reagent was added to each well, and the 96-well plate was shaken for 5 min with an orbital shaker to induce cell lysis. After stabilizing the signal in the dark for 2 minutes, a microplate reader (purchased from Molecular Devices, model SpectraMax M5) was used to measure the chemiluminescent units, the plate reading program was the preset program of CellTiter-Glo, and the cell viability was calculated:
Cell viability (%)=(A(drug treatment group)−A(positive control))/(A(negative control)−A(positive control))×100%
(§1) wherein, A represented the reading of the microplate reader.
(§2) Result evaluation: origin8.0 software was used to carry out the S-type curve fitting on the inhibition rate-concentration, and the IC50 value of the compound to be tested was calculated.

Experiment [2] concerns Rhinovirus (HRV-1059)-infected H1 Hela cells. As to the kind of experiment: Anti-rhinovirus (HRV-1059) activity test, CellTiter-Glo cell viability. In kind it is cell-based, rhinovirus HRV-1059 strain. As to conditions: 100 TCID50 virus per well, 6 days at 37° C., read-out: IC50 Anti-HRV (H1Hela).
Description: (2) Anti-Rhinovirus (HRV-1059) Activity Test
Test object: Rhinovirus (HRV-1059)-infected H1 Hela cells
Testing method: • (1) H1 Hela cells (purchased from the National Experimental Cell Resource Sharing Platform, Cat. No. 3111C0001CCC000344) were inoculated into a 96-well plate at a concentration of 1.5×10^4 cells/well, and the cell culture medium was DMEM medium (purchased from Gibco, Cat. No. 11995065) containing 10% FBS (purchased from Gibco, Cat. No. 16000044), the plate was placed in a CO2 incubator and incubated at 37° C. for 24 hours. • (2) The original medium in the 96-well plate was discarded, 100 μL of DMEM medium (purchased from Gibco, Cat. No. 11995065) containing 2% FBS (purchased from Gibco, Cat. No. 16000044) was taken and added into the cells. Then the stock solution of the compound to be tested was serially diluted with the above DMEM medium to 800 μM, 266.67 μM, 88.89 μM, 29.63 μM, 9.88 μM, 3.29 μM, 1.10 μM, 0.37 μM, 0.12 μM, 0.04 μM, and 50 μL was added to the cell culture plate. The stock solution of positive compound NITD008 (purchased from MCE Company, Cat. No. HY-12957) was serially diluted with the above DMEM medium to 80 μM, 26.67 μM, 8.89 μM, 2.96 μM, 0.99 μM, 0.33 μM, 0.11 μM, 0.04 μM, 0.012 μM, 0.004 μM, 50 μL was added to the cell culture plate. Finally, 50 μL of the rhinovirus HRV-1059 strain (purchased from ATCC, Cat. No. VR-482) diluted with DMEM medium containing 2% FBS was added to the cells, the amount of virus contained in each well was 100 TCID50. The final concentration of the compound to be tested was 0.25 times of the pretreatment concentration, that was, the initial concentration was 200 μM, the dilution was carried out by 3-fold series, the final concentrations of the compound to be tested were: 200 μM, 66.67 μM, 22.22 μM, 7.41 μM, 2.47 μM, 0.82 μM, 0.27 μM, 0.09 μM, 0.03 μM, 0.01 μM. The final concentrations of the positive compound were: 20 μM, 6.67 μM, 2.22 μM, 0.74 μM, 0.25 μM, 0.082 μM, 0.027 μM, 0.009 μM, 0.003 μM, 0.001 μM. Negative control (to the cell well, DMSO and medium were added, without drug) and positive control (to the cell well, DMSO, medium and virus were added, without drug) were set. The cell culture plates were incubated at 37° C. for 6 days. • (3) The Buffer and the substrate of CellTiter-Glo® Chemiluminescent Cell Viability Assay (purchased from Promega, Cat. No. G7573) was mixed in the dark to obtain a working solution. The working solution was mixed with PBS (purchased from Gibco, Cat. No. 10010049) at a ratio of 4:6. After the medium in the cell culture plate was discarded, 100 μl of detection reagent was added to each well, and the 96-well plate was shaken for 5 min with an orbital shaker to induce cell lysis. After stabilizing the signal in the dark for 2 minutes, a microplate reader (purchased from Molecular Devices, model SpectraMax M5) was used to measure the chemiluminescent units, the plate reading program was the preset program of CellTiter-Glo, and the cell viability was calculated:
Cell viability (%)=(A(drug treatment group)−A(positive control))/(A(negative control)−A(positive control))×[…]
as §1, §2

The mark [3] stands for this setting: Enterovirus, HRV1059, H1-HeLa, 144 h.

pIC50: −log10 of the molar value. Where two headings read alike, the source gives them in different places.

As to `COC(=O)[C@@]1(N=[N+]=[N-])OC([C@H](O[Si](C)(C)C(C)(C)C)[C@H]2COC(C)(C)O2)[C@H](NC(C)=O)C(O[Si](C)(C)C(C)(C)C)C1N=[N+]=[N-]` (single isomer, unassigned) [Compound 4a], the negative logarithm of the IC50 (pIC50) in experiment [1] (Zika virus, BHK, 216 h) was 5.85; in experiment [2], 5.34.
As to `CC1(C)OC[C@H](C2O[C@](N=[N+]=[N-])(C(=O)O)C(N=[N+]=[N-])C(O)[C@H]2O)O1` (stereo partly shown) [Compound 19], the pIC50 in experiment [1] (Zika virus, BHK, 216 h) was under 3.70; in experiment [2] (setting [3]) it was 4.61.
For the compound `COC(=O)[C@@]1(N=[N+]=[N-])OC([C@H](OC(=O)c2ccccc2)[C@@H](COC(=O)c2ccccc2)OC(=O)c2ccccc2)[C@H](NC(C)=O)C(OC(=O)c2ccccc2)C1N=[N+]=[N-]` (stereo partly shown) [Compound 6c], the pIC50 in experiment [1] is 4.96; in experiment [2], under 3.70.
In the case of `COC(=O)[C@]1(N=[N+]=[N-])OC([C@H](OC(=O)c2ccccc2)[C@@H](COC(=O)c2ccccc2)OC(=O)c2ccccc2)[C@H](NC(C)=O)C(OC(=O)c2ccccc2)C1N=[N+]=[N-]` (stereo partly shown) [Compound 6b], the pIC50 in experiment [1] (Zika virus, BHK, 216 h) is 4.97; in experiment [2] (setting [3]), under 3.70.
With `COC(=O)[C@]1(N=[N+]=[N-])OC([C@@H](COC(C)=O)OC(C)=O)[C@H](OC(C)=O)C(OC(C)=O)C1N=[N+]=[N-]` (stereo partly shown) [Compound 10a], the pIC50 in experiment [1] (Zika virus, BHK, 216 h) is under 3.70; in experiment [2] (setting [3]), 4.97.
In the case of `COC(=O)[C@@]1(N=[N+]=[N-])OC([C@H](OC(=O)c2ccccc2)[C@@H](COC(=O)c2ccccc2)OC(=O)c2ccccc2)[C@H](NC(C)=O)C(OC(=O)c2ccccc2)C1N` (stereo partly shown) [Compound 14], the pIC50 was 4.84 in experiment [1] (Zika virus, BHK, 216 h) and under 3.70 in experiment [2] (setting [3]).
Consider `COC(=O)[C@@]1(N=[N+]=[N-])OC([C@H](O[Si](C)(C)C(C)(C)C)[C@H]2COC(C)(C)O2)[C@H](NC(C)=O)C(O[Si](C)(C)C(C)(C)C)C1N=[N+]=[N-]` (single isomer, unassigned) [Compound 4b], for which the pIC50 in experiment [1] was 5.60; in experiment [2], 4.72.
For the compound `CC(=O)N[C@@H]1C(OC(=O)c2ccccc2)C(N=[N+]=[N-])[C@@](N=[N+]=[N-])(C(=O)O)OC1[C@H](OC(=O)c1ccccc1)[C@@H](COC(=O)c1ccccc1)OC(=O)c1ccccc1` (stereo partly shown) [Compound 13], the pIC50 was 4.70 in experiment [1] (Zika virus, BHK, 216 h) and 4.88 in experiment [2] (setting [3]).
Take `C#C[C@@]1(O)[C@H](O)[C@@H](CO)O[C@H]1n1ccc2c(N)ncnc21` [NITD008, reference compound]: the negative-log IC50 (pIC50) in experiment [1] is 6.00; in experiment [2], 7.30.
In the case of `COC(=O)[C@@]1(N=[N+]=[N-])OC([C@H](OC(=O)c2ccccc2)[C@@H](COC(=O)c2ccccc2)OC(=O)c2ccccc2)[C@H](NC(C)=O)C(OC(=O)c2ccccc2)C1N=[N+]=[N-]` (stereo partly shown) [Compound 6a], the pIC50 in experiment [1] (Zika virus, BHK, 216 h) was 4.66; in experiment [2] (setting [3]) it was under 3.70.
As for `COC(=O)[C@]1(N=[N+]=[N-])OC([C@H](OC(=O)c2ccccc2)[C@@H](COC(=O)c2ccccc2)OC(=O)c2ccccc2)[C@H](NC(C)=O)C(OC(=O)c2ccccc2)C1N=[N+]=[N-]` (stereo partly shown) [Compound 6d], the figures for the pIC50 in experiment [1] and in experiment [2] were 4.99 and under 3.70, respectively.
